From patent US10689392B2, “Anti-cancer compounds targeting ral GTPases and methods of using the same” (The Regents of the University of Colorado, a body corporate, priority 2011, dated 2020)
Read-outs that look alike come from different tables or passages of the source.

Tests used:
[1] = system: MiaPaCa2 pancreatic cell line; details: cited from earlier work
[2] = target: T1, RalB (Homo sapiens, UniProt P11234); test: RalB activity in H2122 xenograft tumors, RalBP1 pull-down; type: in vivo, mice; details: single IP dose 50 mg/Kg, tumors collected 2 h (RBC10) or 3 h (RBC8) after injection, FIG. 12B
T1 construct: Xenograft tumors were collected 2 h (RBC10) or 3 h (RBC8) after injection; from tissue; host or cells: H2122 human lung cancer xenograft tumours grown subcutaneously in female nude mice
T1 sequence (P11234 1-206): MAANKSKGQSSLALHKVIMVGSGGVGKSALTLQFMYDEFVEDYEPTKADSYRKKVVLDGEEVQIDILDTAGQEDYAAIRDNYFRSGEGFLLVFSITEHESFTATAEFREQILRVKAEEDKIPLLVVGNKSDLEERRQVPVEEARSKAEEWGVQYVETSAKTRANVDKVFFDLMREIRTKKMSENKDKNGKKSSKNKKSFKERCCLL
Protocol: (§1) Human lung cancer cell line H2122 was inoculated subcutaneously into female nude mice and allowed to grow until tumors reached an average size of 200 mm^3. Mice were given a single IP dose of 50 mg/Kg RBC8, RBC10, or DMSO control. Xenograft tumors were collected 2 h (RBC10) or 3 h (RBC8) after injection. RalA and RalB activity in tumors were measured by pull-down assay using RalBP1 agarose beads and normalized to total protein.

[3] = target: T2, RalA (Homo sapiens, UniProt P11233); test: RalA activity in H2122 xenograft tumors, RalBP1 pull-down; type: in vivo, mice; details: single IP dose 50 mg/Kg, tumors collected 2 h (RBC10) or 3 h (RBC8) after injection, FIG. 12A
T2 construct: Xenograft tumors were collected 2 h (RBC10) or 3 h (RBC8) after injection; from tissue; host or cells: H2122 human lung cancer xenograft tumours grown subcutaneously in female nude mice
T2 sequence (P11233 1-206): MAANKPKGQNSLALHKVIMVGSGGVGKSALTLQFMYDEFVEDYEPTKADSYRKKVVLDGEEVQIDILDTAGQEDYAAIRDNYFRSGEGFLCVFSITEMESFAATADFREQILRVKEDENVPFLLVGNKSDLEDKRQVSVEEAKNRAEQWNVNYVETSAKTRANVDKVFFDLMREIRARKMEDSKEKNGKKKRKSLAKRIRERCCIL
Protocol: as §1

[4] = system: lung cancer cell lines A549, H2009, H358, H460, SW1573; test: Combination testing with MEK inhibitor AZD6244 in lung cancer cell lines; type: cell-based, human; details: in conjunction with MEK inhibitor AZD6244, lung cancer cell lines
[5] = Pharmacokinetics in mice after intraperitoneal or oral administration; type: in vivo; details: mouse, blood; for half-life: read-out: t½ (converted)
Protocol: The pharmacokinetics of certain Ral-GTPase inhibiting compounds of the invention were evaluated in mice. Following intraperitoneal injection or oral administration, blood samples were collected over several hours and drug concentrations were evaluated by capillary coupled with Time of Flight (TOF) spectrometry.

[6] = system: bladder cancer cell lines CRL2169, J82, KU7, MGHU4, LULU2, UMUC3; test: Combination testing with MEK inhibitor AZD6244 in bladder cancer cell lines; type: cell-based, human; details: in conjunction with MEK inhibitor AZD6244, bladder cancer cell lines

Row | RalB activity in tumors [2] | RalA activity in tumors [3] | AUC(0-inf) ([5]; intraperitoneal (IP)) | AUC(0-t) ([5]; intraperitoneal (IP)) | Cmax ([5]; intraperitoneal (IP)) | Tmax ([5]; intraperitoneal (IP)) | half-life ([5]; intraperitoneal (IP)) | AUC(0-inf) ([5]; oral (PO)) | AUC(0-t) ([5]; oral (PO)) | Cmax ([5]; oral (PO)) | Tmax ([5]; oral (PO)) | half-life ([5]; oral (PO)) | SMILES | in vitro growth and survival [1] | efficacy of the combination with AZD6244 [4] | efficacy of the combination with AZD6244 [6]
1 |  |  |  |  |  |  |  |  |  |  |  |  | COC(=O)[C@H](CC(C)C)NC(=O)N1CCN(Cc2nc[nH]c2C)C(=O)[C@@H]1Cc1ccccc1 [GGTI-2417] | inhibit the in vitro growth and survival |  | 
2 | inhibition of RalB | inhibition of RalA | 30500 ng·h/mL | 30300 ng·h/mL | 23.4 µM | 1 h | 3.7 h | 5220 ng·h/mL | 4750 ng·h/mL | 2.3 µM | 1 h | 1.9 h | CCCCC(=O)N1c2ccccc2NC2=C(C(=O)CCC2)C1c1ccccc1Cl (stereo not drawn) [RBC10, 11-(2-chlorophenyl)-10-pentanoyl-2,3,4,5,10,11-hexahydro-1H-dibenzo[b,e][1,4]diazepin-1-one] |  | synergistic efficacy | synergistic efficacy
